Experimental findings from patent US11427558B1, “Indazoles and azaindazoles as LRRK2 inhibitors” (ESCAPE Bio, Inc., priority 2019, dated 2022) are described below.

Assay [1] deals with Recombinant G2019S-LRRK2 protein (Homo sapiens (Human), UniProt Q5S007, G2019S). In words: LRRK2 kinase activity, LanthaScreen TR-FRET assay (G2019S). The assay is classed as biochemical. Conditions: LRRKtide 400 nM, 25 μM ATP, 60 min. In short, it runs like this:
(§1)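 Recombinant human wild-type or G2019S LRRK2 phosphorylated fluorescein-labelled LRRKtide (ERM-based) with ATP and serially diluted compound for 60 min at room temperature.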
In general terms: TR-FRET usually uses a lanthanide donor and a delayed reading to cut background.

Assay [2] has as its target Recombinant wild type LRRK2 protein (Homo sapiens (Human), UniProt Q5S007). Put plainly: LRRK2 kinase activity, LanthaScreen TR-FRET assay (wild type). Conditions: LRRKtide 400 nM, 25 μM ATP, 60 min; read-out: LRRK2 WT IC50. Type of assay: biochemical. In a few lines:
as §1

Recombinant G2019S-LRRK2 protein, sequence (Q5S007 whole entry G2019S): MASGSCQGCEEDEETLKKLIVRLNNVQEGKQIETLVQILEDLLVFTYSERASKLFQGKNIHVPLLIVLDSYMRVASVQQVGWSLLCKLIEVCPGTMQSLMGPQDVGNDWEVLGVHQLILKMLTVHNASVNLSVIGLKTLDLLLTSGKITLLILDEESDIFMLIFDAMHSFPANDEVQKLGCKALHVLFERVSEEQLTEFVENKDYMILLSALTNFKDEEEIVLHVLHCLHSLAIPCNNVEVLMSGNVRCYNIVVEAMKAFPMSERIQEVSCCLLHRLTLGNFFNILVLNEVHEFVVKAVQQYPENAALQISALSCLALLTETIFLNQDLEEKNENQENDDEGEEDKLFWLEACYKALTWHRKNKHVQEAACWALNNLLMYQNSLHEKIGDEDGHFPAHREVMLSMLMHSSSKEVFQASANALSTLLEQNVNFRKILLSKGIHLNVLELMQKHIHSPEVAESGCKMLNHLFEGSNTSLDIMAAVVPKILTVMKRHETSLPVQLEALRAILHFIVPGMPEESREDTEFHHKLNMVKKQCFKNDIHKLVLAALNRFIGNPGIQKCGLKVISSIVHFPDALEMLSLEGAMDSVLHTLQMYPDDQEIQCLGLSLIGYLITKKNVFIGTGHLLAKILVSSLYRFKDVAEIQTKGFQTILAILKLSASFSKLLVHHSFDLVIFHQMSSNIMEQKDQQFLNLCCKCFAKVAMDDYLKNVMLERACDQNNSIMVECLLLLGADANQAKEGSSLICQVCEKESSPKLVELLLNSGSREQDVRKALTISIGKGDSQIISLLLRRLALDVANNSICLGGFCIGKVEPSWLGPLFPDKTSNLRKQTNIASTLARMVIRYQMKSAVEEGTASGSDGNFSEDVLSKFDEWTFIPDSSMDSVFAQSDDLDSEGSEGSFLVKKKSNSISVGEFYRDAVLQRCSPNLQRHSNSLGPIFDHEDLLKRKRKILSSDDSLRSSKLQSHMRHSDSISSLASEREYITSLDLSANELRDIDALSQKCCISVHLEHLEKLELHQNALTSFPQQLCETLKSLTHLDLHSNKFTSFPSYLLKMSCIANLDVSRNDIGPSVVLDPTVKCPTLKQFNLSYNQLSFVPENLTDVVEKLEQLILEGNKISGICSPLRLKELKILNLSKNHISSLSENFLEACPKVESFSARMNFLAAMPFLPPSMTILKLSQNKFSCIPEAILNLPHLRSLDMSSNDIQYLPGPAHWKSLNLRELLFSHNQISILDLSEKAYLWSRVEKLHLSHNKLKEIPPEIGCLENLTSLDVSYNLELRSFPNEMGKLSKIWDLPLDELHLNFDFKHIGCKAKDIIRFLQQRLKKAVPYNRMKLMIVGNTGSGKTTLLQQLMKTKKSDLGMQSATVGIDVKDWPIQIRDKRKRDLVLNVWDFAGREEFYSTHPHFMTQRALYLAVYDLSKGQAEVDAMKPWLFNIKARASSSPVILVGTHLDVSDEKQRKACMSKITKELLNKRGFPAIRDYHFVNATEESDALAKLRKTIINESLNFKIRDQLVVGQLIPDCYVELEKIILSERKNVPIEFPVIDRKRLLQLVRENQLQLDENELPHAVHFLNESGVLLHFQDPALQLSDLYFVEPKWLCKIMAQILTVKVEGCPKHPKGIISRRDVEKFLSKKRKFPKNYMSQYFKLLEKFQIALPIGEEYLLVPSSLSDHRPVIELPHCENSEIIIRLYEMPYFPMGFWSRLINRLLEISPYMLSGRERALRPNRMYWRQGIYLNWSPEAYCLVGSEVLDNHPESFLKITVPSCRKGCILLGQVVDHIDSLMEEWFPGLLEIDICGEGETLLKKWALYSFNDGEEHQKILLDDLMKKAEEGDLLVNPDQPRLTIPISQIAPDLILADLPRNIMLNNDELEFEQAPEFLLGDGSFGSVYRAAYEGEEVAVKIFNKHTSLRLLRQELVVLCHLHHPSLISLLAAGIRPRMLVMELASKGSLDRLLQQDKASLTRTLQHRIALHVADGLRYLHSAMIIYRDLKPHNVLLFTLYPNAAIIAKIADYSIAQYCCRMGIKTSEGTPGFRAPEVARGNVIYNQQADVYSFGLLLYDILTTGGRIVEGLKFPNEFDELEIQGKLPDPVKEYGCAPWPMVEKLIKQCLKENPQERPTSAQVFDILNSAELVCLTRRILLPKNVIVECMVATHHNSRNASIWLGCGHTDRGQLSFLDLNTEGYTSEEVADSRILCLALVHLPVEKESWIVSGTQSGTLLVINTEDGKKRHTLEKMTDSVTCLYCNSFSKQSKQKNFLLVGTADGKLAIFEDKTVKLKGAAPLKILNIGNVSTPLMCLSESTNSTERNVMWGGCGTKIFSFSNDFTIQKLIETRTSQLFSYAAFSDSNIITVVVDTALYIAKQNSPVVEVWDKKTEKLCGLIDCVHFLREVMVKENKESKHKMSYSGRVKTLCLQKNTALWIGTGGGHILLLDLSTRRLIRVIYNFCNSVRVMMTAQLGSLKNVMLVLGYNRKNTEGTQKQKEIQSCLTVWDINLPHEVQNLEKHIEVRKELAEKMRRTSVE
Recombinant wild type LRRK2 protein, sequence (Q5S007 whole entry): as the sequence (Q5S007 whole entry G2019S) above, with S2019G counted along it

For the molecule `Cc1cc(-c2n[nH]c3ccc(NC(=O)c4ncc(C#N)c(C)c4C)cc23)cc(C)n1` [Example 191, 5-Cyano-N-(3-(2,6-dimethylpyridin-4-yl)-1H-indazol-5-yl)-3,4-dimethylpicolinamide], the IC50 in assay [1] and in assay [2] was less than 100 nM throughout.

For the molecule `N#Cc1cnc(C(=O)Nc2ccc3[nH]nc(-c4ccoc4)c3c2)c(C(F)F)c1` [Example 64, 5-Cyano-3-(difluoromethyl)-N-(3-(furan-3-yl)-1H-indazol-5-yl)picolinamide], the 50% inhibitory concentration (IC50) is less than 100 nM in assay [1] and 100 to 1000 nM in assay [2].

With `Cc1c(C(=O)Nc2ccc3[nH]nc(-c4cnn(C(F)F)c4)c3c2)nc(Cl)c(C#N)c1C` [Example 175, 6-Chloro-5-cyano-N-(3-(1-(difluoromethyl)-1H-pyrazol-4-yl)-1H-indazol-5-yl)-3,4-dimethylpicolinamide], the half-inhibitory concentration (IC50) in assay [1] and in assay [2] was less than 100 nM throughout.

On to `Cc1cc(-c2n[nH]c3ccc(NC(=O)c4ncc(C#N)cc4C)cc23)ccc1F` [Example 51, 5-Cyano-N-(3-(4-fluoro-3-methylphenyl)-1H-indazol-5-yl)-3-methylpicolinamide], for which the concentration for half-maximal inhibition (IC50) in assay [1] is less than 100 nM; in assay [2], 100 to 1000 nM.

Take `Cc1nc(C#N)n(C)c1C(=O)Nc1ccc2[nH]nc(-c3ccccc3)c2c1` [Example 43, 2-Cyano-1,4-dimethyl-N-(3-phenyl-1H-indazol-5-yl)-1H-imidazole-5-carboxamide]: the concentration for half-maximal inhibition (IC50) was less than 100 nM in assay [1] and 100 to 1000 nM in assay [2].

Take `N#Cc1cnc(C(=O)Nc2ccc3[nH]nc(-c4cnco4)c3c2)c(C2CC2)c1` [Example 312, 5-Cyano-3-cyclopropyl-N-(3-(oxazol-5-yl)-1H-indazol-5-yl)picolinamide]: the values for the 50% inhibitory concentration (IC50) in assay [1] and in assay [2] were less than 100 nM and 100 to 1000 nM, respectively.

Turning to `COc1c(C#N)cccc1C(=O)Nc1ccc2[nH]nc(-c3cnco3)c2c1` [Example 176, 3-Cyano-2-methoxy-N-(3-(oxazol-5-yl)-1H-indazol-5-yl)benzamide], the IC50 in assay [1] and in assay [2] was less than 100 nM in each case.

Turning to `Cc1ccc(C#N)c(F)c1C(=O)Nc1ccc2[nH]nc(-c3cnn(C(F)F)c3)c2c1` [Example 177, 3-Cyano-N-(3-(1-(difluoromethyl)-1H-pyrazol-4-yl)-1H-indazol-5-yl)-2-fluoro-6-methylbenzamide], the IC50 in assay [1] and in assay [2] was less than 100 nM in each case.

`Cc1c(C#N)cnc(C(=O)Nc2ccc3[nH]nc(-c4cnn(C5CC5)c4)c3c2)c1C` [Example 335, 5-Cyano-N-(3-(1-cyclopropyl-1H-pyrazol-4-yl)-1H-indazol-5-yl)-3,4-dimethylpicolinamide]: the IC50 in assay [1] and in assay [2] was less than 100 nM in each case.

With `Cc1c(C#N)cccc1C(=O)Nc1ccc2[nH]nc(-c3ccoc3)c2c1` [Example 19, 3-Cyano-N-(3-(furan-3-yl)-1H-indazol-5-yl)-2-methylbenzamide], the 50% inhibitory concentration (IC50) in assay [1] and in assay [2] was less than 100 nM in each case.

As to `Cc1c(C#N)cnc(C(=O)Nc2ccc3[nH]nc(/C=C/c4ccccc4)c3c2)c1C` [Example 244, (E)-5-Cyano-3,4-dimethyl-N-(3-styryl-1H-indazol-5-yl)picolinamide], the IC50 in assay [1] and in assay [2] was less than 100 nM each time.

In the case of `Cc1cc(C#N)ccc1C(=O)Nc1ccc2[nH]nc(C)c2c1` [Example 12, 4-Cyano-2-methyl-N-(3-methyl-1H-indazol-5-yl)benzamide], the results for the IC50 in assay [1] and in assay [2] were less than 100 nM and 100 to 1000 nM, respectively.

On to `Cc1cccc(-c2n[nH]c3ccc(NC(=O)c4ncc(C#N)c(C)c4C)cc23)n1` [Example 182, 5-Cyano-3,4-dimethyl-N-(3-(6-methylpyridin-2-yl)-1H-indazol-5-yl)picolinamide], for which the IC50 in assay [1] was less than 100 nM; in assay [2], 100 to 1000 nM.

In the case of `COc1c(C#N)ccnc1C(=O)Nc1ccc2[nH]nc(-c3cnoc3)c2c1` [Example 228, 4-Cyano-N-(3-(isoxazol-4-yl)-1H-indazol-5-yl)-3-methoxypicolinamide], the IC50 was less than 100 nM in assay [1] and 100 to 1000 nM in assay [2].

For the molecule `COc1cc(-c2n[nH]c3ccc(NC(=O)c4ccnc(C#N)c4F)cc23)ccn1` [Example 170, 2-Cyano-3-fluoro-N-(3-(2-methoxypyridin-4-yl)-1H-indazol-5-yl)isonicotinamide], the IC50 is less than 100 nM in assay [1] and 100 to 1000 nM in assay [2].

In the case of `Cc1cc(C#N)cnc1C(=O)Nc1ccc2[nH]nc(-c3ccc(OC(C)C)nc3)c2c1` [Example 38, 5-Cyano-N-(3-(6-isopropoxypyridin-3-yl)-1H-indazol-5-yl)-3-methylpicolinamide], the IC50 in assay [1] was less than 100 nM; in assay [2], 100 to 1000 nM.

With `Cc1ncc(-c2n[nH]c3ccc(NC(=O)c4ncc(C#N)cc4C)cc23)s1` [Example 140, 5-Cyano-3-methyl-N-(3-(2-methylthiazol-5-yl)-1H-indazol-5-yl)picolinamide], the IC50 in assay [1] and in assay [2] was less than 100 nM in each case.

Consider `COc1nc(C(=O)Nc2ccc3[nH]nc(C4CC4)c3c2)c(C)c(C)c1C#N` [Example 304, 5-Cyano-N-(3-cyclopropyl-1H-indazol-5-yl)-6-methoxy-3,4-dimethylpicolinamide], for which the half-inhibitory concentration (IC50) in assay [1] and in assay [2] was less than 100 nM throughout.

For `COc1c(C#N)ccc(C)c1C(=O)Nc1ccc2[nH]nc(C)c2c1` [Example 299, 3-Cyano-2-methoxy-6-methyl-N-(3-methyl-1H-indazol-5-yl)benzamide], the IC50 in assay [1] is less than 100 nM; in assay [2] it was 100 to 1000 nM.

In the case of `Cc1cc(C#N)cnc1C(=O)Nc1ccc2[nH]nc(-c3ccoc3)c2n1` [Example 100, 5-Cyano-N-(3-(furan-3-yl)-1H-pyrazolo[4,3-b]pyridin-5-yl)-3-methylpicolinamide], the concentration for half-maximal inhibition (IC50) in assay [1] and in assay [2] was less than 100 nM in each case.

Take `Cc1c(C(=O)Nc2ccc3[nH]nc(C4CC4)c3c2)nc(C(F)(F)F)c(C#N)c1C` [Example 328, 5-Cyano-N-(3-cyclopropyl-1H-indazol-5-yl)-3,4-dimethyl-6-(trifluoromethyl)picolinamide]: the IC50 in assay [1] and in assay [2] was less than 100 nM throughout.

With `N#Cc1ccc(C(=O)Nc2ccc3[nH]nc(-c4ccoc4)c3c2)c(Br)c1` [Example 2, 2-Bromo-4-cyano-N-(3-(furan-3-yl)-1H-indazol-5-yl)benzamide], the 50% inhibitory concentration (IC50) in assay [1] and in assay [2] was less than 100 nM in each case.

With `Cc1cc(F)cc(-c2n[nH]c3ccc(NC(=O)c4ncc(C#N)cc4C)cc23)c1` [Example 61, 5-Cyano-N-(3-(3-fluoro-5-methylphenyl)-1H-indazol-5-yl)-3-methylpicolinamide], the 50% inhibitory concentration (IC50) is less than 100 nM in assay [1] and 100 to 1000 nM in assay [2].

As for `Cc1cc(C#N)cnc1C(=O)Nc1ccc2[nH]nc(-c3ccnc(N4C[C@@H](C)O[C@@H](C)C4)c3)c2c1` [Example 118, 5-Cyano-N-(3-(2-((2S,6R)-2,6-dimethylmorpholino)pyridin-4-yl)-1H-indazol-5-yl)-3-methylpicolinamide], the IC50 in assay [1] and in assay [2] was less than 100 nM in each case.

As to `Cc1cc(C#N)cnc1C(=O)Nc1ccc2[nH]nc(-c3ccc(C#N)s3)c2c1` [Example 131, 5-Cyano-N-(3-(5-cyanothiophen-2-yl)-1H-indazol-5-yl)-3-methylpicolinamide], the results for the IC50 in assay [1] and in assay [2] were less than 100 nM and 100 to 1000 nM, respectively.

As a reminder, the IC50 is the midpoint of a concentration-inhibition curve.
